We go through eleven compounds from patent publication US20090123419A1, “TREATMENT OF UTERINE CANCER AND OVARIAN CANCER WITH A PARP INHIBITOR ALONE OR IN COMBINATION WITH ANTI-TUMOR AGENTS” (BiPar Sciences, priority 2007, published 2009).

Read-outs that look alike come from different tables or passages of the source.

Data set [1] has as its system panel of 63 other kinases, including native c-Abl. The following applies: cited from earlier work.
Data set [2] relates to cells not expressing Bcr-Abl. As to conditions: cited from earlier work.
In data set [3] the test system is advanced solid tumors. Nature of the data set: Phase 1b study of BA in combination with chemotherapy, clinical response via RECIST. Format: in vivo, human. As to conditions: number of subjects; chemotherapy in combination with BA. As for the experimental part:
The protocol has been amended to evaluate BA in combination with chemotherapy in specific tumor types.
BA plus cytotoxic chemotherapy (CTX)
BA Dosing: • Twice weekly; i.v. infusion • Standard 3+3 design for BA dose escalation • Dose levels studied: 2.0, 2.8, 4.0, 5.6, 8.0, and up to 11.2 mg/kg
Clinical response via RECIST every 2 cycles
Subjects— 18 years old with a refractory, advanced solid tumor, ECOG PS of <=2, and adequate hematological, renal, and hepatic function
No restriction on number of prior chemotherapeutic regimens

The subject of data set [4] is advanced endometrial cancer. The following applies: of 29 patients enrolled; preliminary data analysis; cited from earlier work.
Data set [5] has as its system carcinosarcoma of the uterus. As to conditions: single agent; cited from earlier work.
Data set [6] concerns endometrial carcinoma. As to conditions: cited from earlier work.
The test system of data set [7] is carcinosarcoma of the uterus. As to conditions: cited from earlier work.
Data set [8] relates to carcinosarcoma of the uterus. The following applies: cited from earlier work. This is another data set of the same source.
The test system of data set [9] is advanced or recurrent endometrial cancer. The following applies: single agent; cited from earlier work.
In data set [10] the test system is persistent or recurrent nonsquamous cell carcinoma of the cervix. The following applies: cited from earlier work.

As for `NC(=O)c1cccc(-c2cc(Nc3ccc(OC(F)(F)F)cc3)ncn2)c1` [GNF-2], the “inhibition of a panel of 63 other kinases” value in data set [1] was “does not inhibit”. Moreover, in data set [2], the “toxicity towards cells not expressing Bcr-Abl” value is recorded as “complete lack of toxicity”.
Turning to `Nc1ccn(C2OC(CO)C(O)C2(F)F)c(=O)n1` (centres unmarked) [Gemcitabine, 4-amino-1-[3,3-difluoro-4-hydroxy-5-(hydroxymethyl)tetrahydrofuran-2-yl]-1H-pyrimidin-2-one], the “CR + PR” value in data set [3] came to 3.
Same read-out and setting: to `Cn1nnc2c(C(N)=O)ncn2c1=O` [Temozolomide, temozolomide] belongs 1.
Take `COc1cc2ncnc(Nc3ccc(F)c(Cl)c3)c2cc1OCCCN1CCOCC1` [ZD1839, gefitinib]: in data set [4], the “patients with complete response” value is reported as 1 patient and the “patients with stable disease at 6 months” value is reported as “several”.
As to `N.N.[Cl][Pt][Cl]` [cisplatin], the response rate in [5] is on record as 18%.
As for `COc1cccc2c1C(=O)c1c(O)c3c(c(O)c1C2=O)C[C@@](O)(C(=O)CO)C[C@@H]3O[C@H]1C[C@H](N)[C@H](O)[C@H](C)O1` [doxorubicin], in data set [5], the response rate is listed as 9.8%. Besides, the “response rate (RR)” value in data set [6] (doxorubicin 60 mg/m^2, cisplatin 50 mg/m^2, p=0.004) is recorded as 25%. Moreover, the PFS in data set [6] (in vivo) is on record as 3.8 months. Also, the OS in data set [6] (no difference observed) is 9 months.
As for `COc1cc([C@@H]2c3cc4c(cc3[C@@H](O[C@@H]3O[C@@H]5CO[C@@H](C)O[C@H]5[C@H](O)[C@H]3O)[C@H]3COC(=O)[C@H]23)OCO4)cc(OC)c1O` [etoposide], the response rate in data set [5] is 6.5%.
In the case of `O=P1(NCCCl)OCCCN1CCCl` (centres unmarked) [ifosfamide], the response rate in data set [5] is 32.2%; in data set [7] (second randomized trial), 29%; in [8] (randomized phase III trial) it was 36%. In addition, the median progression-free survival in data set [7] (p=0.03) was 3.6 months; in data set [8] (p=0.02), 4 months. The median survival in [7] (p=0.03) was 8.4 months; in data set [8] (p=0.07) it was 7.6 months. Also, the toxicity result in [7] (use of ifosfamide) is reported as “significant toxicity”.
Take `CC(=O)O[C@H]1C(=O)[C@@]2(C)[C@H]([C@H](OC(=O)c3ccccc3)[C@]3(O)C[C@H](OC(=O)[C@H](O)[C@@H](NC(=O)c4ccccc4)c4ccccc4)C(C)=C1C3(C)C)[C@]1(OC(C)=O)CO[C@@H]1C[C@@H]2O` [paclitaxel]: the response rate is on record as 18.2% in data set [5] and 36% in [9].
For `CC/C(=C(\c1ccccc1)c1ccc(OCCN(C)C)cc1)c1ccccc1` [tamoxifen], in data set [10] (27 evaluable for response), the complete responses entry was “one” and the partial responses entry is “two”. The “grades 3 and 4 adverse effects reported” value in data set [10] (32 patients evaluable for adverse effects) is listed as “six”. Moreover, in data set [10] (in vivo), the “antitumor activity, conclusion” value is “minimal activity”. For the same compound, the objective response rate in data set [10] (tamoxifen citrate 10 mg orally twice a day, 27 evaluable for response) is 11.1%.
As for `CC[C@@]1(O)C(=O)OCc2c1cc1n(c2=O)Cc2cc3c(CN(C)C)c(O)ccc3nc2-1` [topotecan], the response rate in [5] is recorded as 10%. The “CR + PR” value in [3] was found to be 1.
